Tests used:
P2Y6-receptor = P2Y6-receptor (Homo sapiens, UniProt Q15077); details: Ginsburg-Shmuel et al., 2010; read-out: EC50 at P2Y6-receptor (literature); cited from earlier work
P2Y2-R = P2Y2-R (Homo sapiens, UniProt P41231); test: [Ca2+]i increase in 1321N1 astrocytoma cells expressing P2Y2-R; assay type: cell-based; design: expressed in transfected cells; host or cells: 1321N1 astrocytoma cells; details: 1321N1 astrocytoma cells, [Ca2+]i; n.d.r = no detectable response up to 100 μM
Protocol: (§1) Green fluorescent protein (GFP) constructs of human P2Y2-R, P2Y4-R and P2Y6-R were expressed in 1321N1 astrocytoma cells, which lack endogenous expression of P2X- and P2Y-receptors. The respective cDNA of the receptor gene was cloned into a pEGFPN1 vector. After transfection using FuGENE 6 Transfection Reagent (Roche Molecular Biochemicals, Mannheim, Germany), the cells were selected with 0.5 mg/ml G418 (geneticine; Merck Chemicals, Darmstadt, Germany) and grown in Dulbecco's modified Eagles' medium (DMEM) supplemented with 10% fetal calf serum, 100 U/ml penicillin and […] at 37° C. and 5% CO2. The expression and cell membrane localization of the respective P2Y receptors was confirmed through the analysis of the GFP fluorescence. The functionality of the expressed GFP-labeled receptor in cells was verified by recording a change of [Ca^2+]i after stimulation with the appropriate receptor agonist.
(§2) 1321N1 astrocytoma cells transfected with the respective plasmid for P2YR-GFP expression plated on coverslips (22 mm diameter) and grown to approximately 80% density were incubated with 2 μM fura 2/AM and 0.02% pluronic acid in Na-HBS buffer (Hepes buffered saline: 145 mM NaCl, 5.4 mM KCl, 1.8 mM CaCl2, 1 mM MgCl2, 25 mM glucose, 20 mM Hepes/Tris pH 7.4) for 30 min at 37° C. The cells were superfused (1 ml/min, 37° C.) with different concentrations of nucleotide in Na-HBS buffer, and the nucleotide-induced change of [Ca^2+]i was measured by detecting the respective emission intensity of fura 2/AM at 510 nm with after 340 nm and 380 nm excitations (Ubl et al., 1998). The average maximal amplitude of the responses and the respective standard errors were calculated from the ratio of the fura 2/AM fluorescence intensities with excitations at 340 nm and 380 nm (only MT-labeled cells were analysed). Microsoft Excel (Microsoft Corp., Redmond, Wash., USA) and SigmaPlot (SPSS Inc., Chicago, Ill., USA) were used to derive the concentration-response curves and EC50 values from the average response amplitudes obtained in at least three independent experiments (Ecke et al., 2006, 2008). Only cells with a clear MT-signal and with the typical calcium response kinetics upon agonist pulse application were included in the data analysis. The GFP-tagged P2Y receptors are suitable for pharmacological and physiological studies, as previously reported (Tulapurkar et al., 2004, 2006; Zylberg et al., 2007).
(§3) In this study, analogues 13-17 were tested for their potency and selectivity at P2Y2,4,6-receptors based on measurements of increases in intracellular calcium concentrations in 1321N1 astrocytoma cells transfected with the respective plasmid, as described in Materials and Methods, and the results are summarized in Table 2.

P2Y4-R = biological target: T1, P2Y4-R (Homo sapiens, UniProt P51582); test: [Ca2+]i increase in 1321N1 astrocytoma cells expressing P2Y4-R; assay type: cell-based; details: n.d.r = no detectable response up to 100 μM
T1 construct: expressed in transfected cells; host or cells: 1321N1 astrocytoma cells
Protocol: as §1, §2, §3

Sequence of P2Y6-receptor (Q15077 whole entry): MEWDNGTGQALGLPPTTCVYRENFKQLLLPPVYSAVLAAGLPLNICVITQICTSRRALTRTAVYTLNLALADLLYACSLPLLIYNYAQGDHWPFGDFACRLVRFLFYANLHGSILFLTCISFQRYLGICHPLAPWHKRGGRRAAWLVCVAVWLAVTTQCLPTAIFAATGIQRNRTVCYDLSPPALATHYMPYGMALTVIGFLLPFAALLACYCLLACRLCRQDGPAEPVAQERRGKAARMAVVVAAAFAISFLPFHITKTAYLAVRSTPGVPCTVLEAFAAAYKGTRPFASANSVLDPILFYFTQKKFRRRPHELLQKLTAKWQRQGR
T1 sequence (P51582 whole entry): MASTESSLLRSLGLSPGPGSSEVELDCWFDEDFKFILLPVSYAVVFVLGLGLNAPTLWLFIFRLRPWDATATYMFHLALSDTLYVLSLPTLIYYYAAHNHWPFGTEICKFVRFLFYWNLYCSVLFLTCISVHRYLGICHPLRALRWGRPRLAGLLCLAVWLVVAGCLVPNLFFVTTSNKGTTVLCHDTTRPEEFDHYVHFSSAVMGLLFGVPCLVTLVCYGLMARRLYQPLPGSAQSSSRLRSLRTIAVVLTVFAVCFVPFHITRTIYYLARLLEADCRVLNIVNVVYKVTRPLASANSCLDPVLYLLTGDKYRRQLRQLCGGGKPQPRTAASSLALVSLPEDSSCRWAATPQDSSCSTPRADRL
Sequence of P2Y2-R (P41231 whole entry): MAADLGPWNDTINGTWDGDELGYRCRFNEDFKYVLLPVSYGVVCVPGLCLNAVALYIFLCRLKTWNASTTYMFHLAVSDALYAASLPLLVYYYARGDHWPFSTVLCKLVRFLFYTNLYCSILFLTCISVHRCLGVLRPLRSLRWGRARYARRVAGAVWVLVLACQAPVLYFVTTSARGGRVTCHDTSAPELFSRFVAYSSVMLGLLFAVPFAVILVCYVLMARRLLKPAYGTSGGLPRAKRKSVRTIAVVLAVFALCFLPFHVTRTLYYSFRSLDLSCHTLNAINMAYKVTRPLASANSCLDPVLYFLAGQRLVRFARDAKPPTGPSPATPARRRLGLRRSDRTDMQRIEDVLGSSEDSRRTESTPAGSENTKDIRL

O=c1ccn([C@@H]2O[C@H](COP(=O)(O)OP(=O)(O)O)[C@@H](O)[C@H]2O)c(=O)[nH]1 [UDP, reference compound]
EC50 (P2Y6-receptor): 140 nM

[BH3-][P+](O)(OCC1OC(n2cc(OC)c(=O)[nH]c2=O)C(O)C1O)OP(=O)(O)O (single isomer, unassigned) [Analogue 13A, 5-methoxyuridine-5′-O-(α-boranodiphosphate)]
Potencies (EC50) at the P2Y2-R (P2Y2-R): n.d.r
Potencies (EC50) at the P2Y4-R (P2Y4-R): n.d.r

From patent US9221868B2, “Uridine di- or tri-phosphate derivatives and uses thereof” (BAR-ILAN UNIVERSITY, priority 2010, dated 2015)
